This note sets out measurements from patent publication US8835454B2, “Fused bicyclic diamine derivatives as HIV attachment inhibitors” (priority 2011, dated 2014).

Where two headings read alike, the source gives them in different places.

The subject of this experiment is HIV-1 LAI envelope single-round infectious reporter virus. The experiment is described as follows: Single-round infectious luciferase reporter virus infection of MT2 cells (HIV-1 LAI envelope). The format is cell-based. To be noted: Human immunodeficiency virus 1, MT2, 72 h. The text has this: Human embryonic Kidney cell line, 293T (HEK 293T), was propagated in Dulbecco's Modified Eagle Medium (Invitrogen, Carlsbad, Calif.) containing 10% fetal Bovine serum (FBS, Sigma, St. Louis, Mo.). The human T-cell leukemia cell MT2 (AIDS Research and Reference Reagent Program, Cat. 237) was propagated in RPMI 1640 (Invitrogen, Carlsbad, Calif.) containing 10% fetal bovine serum (FBS, Hyclone, Logan, Utah)
Single-round infectious reporter virus was produced by co-transfecting HEK 293T cells with plasmide expressing the HIV-1 LAI envelope along with a plasmid containing an HIV-1 LAI proviral cDNA with the envelope gene replaced by a firefly luciferase reporter gene (Chen et al, Ref 41). Transfections were performed using lipofectAMINE PLUS reagent as described by the manufacturer (Invitrogen, Carlsbad, Calif.).
• 1. MT2 cells were plated in black, 384 well plates at a cell density of 5×10^3 cells per well in 25 μl RPMI 1640 containing 10% FBS. • 2. Compound (diluted in dimethylsulfoxide and growth medium) was added to cells at 12.5 μl/well, so that the final assay concentration would be ≦50 nM. • 3. 12.5 μl of single-round infectious reporter virus in Dulbecco's Modified Eagle Medium was added to the plated cells and compound at an approximate multiplicity of infection (MOI) of 0.01, resulting in a final volume of 50 μl per well. • 4. Virus-infected cells were incubated at 37 degrees Celsius, in a CO2 incubator, and harvested 72 h after infection. • 5. Viral infection was monitored by measuring luciferase expression in the infected cells using a luciferase reporter gene assay kit (Steady-Glo, Promega, Madison, Wis.) as described by the manufacturer. Luciferase activity was then quantified by measuring luminescence using an EnVision Multilabel Plate Readers (PerkinElmer, Waltham, Mass.). • 6. The percent inhibition for each compound was calculated by quantifying the level of luciferase expression in cells infected in the presence of each compound as a percentage of that observed for cells infected in the absence of compound and subtracting such a determined value from 100. • 7. An EC50 provides a method for comparing the antiviral potency of the compounds of this disclosure. The effective concentration for fifty percent inhibition (EC50) was calculated with the Microsoft Excel Xlfit curve fitting software. For each compound, curves were generated from percent inhibition calculated at 10 different concentrations by using a four parameter logistic model (model 205). Table 1 is the key for the data in Table 2.
(A reporter such as luciferase makes a cellular process visible.)

[1] abbreviates: read-out: EC50 Group from Table 1.

For orientation: EC50 means the concentration giving half of the maximal effect. Turning to `O=C(C(=O)N1CC2CN(C(=O)c3ccccc3)CC2C1)c1c[nH]c2c(-n3ccnn3)ncc(F)c12` (stereo not shown) [Compound 2005], the EC50 under setting [1] is below 500 nM.
As for `CN(C)C(=O)N1CC2CN(C(=O)C(=O)c3c[nH]c4c(-n5ccnn5)ncc(F)c34)CC2C1` (stereo not shown) [Compound 3001, 5-(2-(4-fluoro-7-(1H-1,2,3-triazol-1-yl)-1H-pyrrolo[2,3-c]pyridin-3-yl)-2-oxoacetyl)-N,N-dimethylhexahydropyrrolo[3,4-c]pyrrole-2(1H)-carboxamide], the EC50 under setting [1] was below 500 nM.
As for `COc1cnc(-n2cnc(C)n2)c2[nH]cc(C(=O)C(=O)N3CC4CN(Cc5ccccc5)CC4C3)c12` (stereo not shown) [Compound 2001], under setting [1], the EC50 is below 500 nM.
On to `O=C(C(=O)N1CC2CN(c3nnnn3-c3ccccc3)CC2C1)c1c[nH]c2c(-n3ccnn3)ncc(F)c12` (stereo not shown) [Compound 1001, 1-(4-fluoro-7-(1H-1,2,3-triazol-1-yl)-1H-pyrrolo[2,3-c]pyridin-3-yl)-2-(5-(1-phenyl-1H-tetrazol-5-yl)hexahydropyrrolo[3,4-c]pyrrol-2(1H)-yl)ethane-1,2-dione], for which the EC50 under setting [1] was below 500 nM.
As for `COc1cnc(-n2cnc(C)n2)c2[nH]cc(C(=O)C(=O)N3CC4CN(c5nnnn5-c5ccccc5)CC4C3)c12` (stereo not shown) [Compound 1002, 1-(4-methoxy-7-(3-methyl-1H-1,2,4-triazol-1-yl)-1H-pyrrolo[2,3-c]pyridin-3-yl)-2-(5-(1-phenyl-1H-tetrazol-5-yl)hexahydropyrrolo[3,4-c]pyrrol-2(1H)-yl)ethane-1,2-dione], the EC50 was 1.41 nM. For the same molecule, under setting [1], the EC50 is below 500 nM.
Consider `COc1cnc(-n2cnc(C)n2)c2[nH]cc(C(=O)C(=O)N3CC4CN(C(=O)c5ccccc5)CC4C3)c12` (stereo not shown) [Compound 2006], for which it took 0.68 nM to reach a half-maximal effect (EC50). In addition, the EC50 under setting [1] is below 500 nM.
In the case of `O=C(C(=O)N1CC2CN(Cc3ccccc3)CC2C1)c1c[nH]c2c(-n3ccnn3)ncc(F)c12` (stereo not shown) [Compound 2003], the EC50 under setting [1] is above 500 nM.
In the case of `COc1cnc(-n2cnc(C)n2)c2[nH]cc(C(=O)C(=O)N3CC4CN(C(=O)N(C)C)CC4C3)c12` (stereo not shown) [Compound 3002, 5-(2-(4-methoxy-7-(3-methyl-1H-1,2,4-triazol-1-yl)-1H-pyrrolo[2,3-c]pyridin-3-yl)-2-oxoacetyl)-N,N-dimethylhexahydropyrrolo[3,4-c]pyrrole-2(1H)-carboxamide], the half-maximal effective concentration (EC50) under setting [1] is below 500 nM.
